Assay results reported in PubChem BioAssay AID298 (DTP/NCI, 2004).
Values joined by “and” are separate entries in the source; they are usually repeats but may differ in a detail not shown here. Identical values can stand only once. Records with an inconclusive call do not appear.

System: MX-1 breast xenograft, intrarenal, nude mice, tumor weight
Test: NCI In Vivo Anticancer Drug Screen. Data for tumor model Human Mammary Carcinoma MX-1 Xenograft (intrarenal inoculation) in NU/NU BALB/C (nude) mice
Details: endpoint: mean tumor weight change, higher = larger tumour
Procedure: The antitumor activity of compounds was measured in mice bearing transplantable tumors. Survival or tumor size were measured and the results are expressed as the measurement made in the treated group (T) divided by the measurement made in the vehicle treated control group (C). The tumor model used in this assay is Human Mammary Carcinoma MX-1 Xenograft (intrarenal inoculation) in NU/NU BALB/C (nude) mice

[1] = dose: 150.0 mg/kg/injection, schedule: Q04DX003 (sc), vehicle: saline
[2] = dose: 300.0 mg/kg/injection, schedule: Q04DX003 (sc), vehicle: saline
[3] = dose: 600.0 mg/kg/injection, schedule: Q04DX003 (sc), vehicle: saline
[4] = dose: 1200.0 mg/kg/injection, schedule: Q04DX003 (sc), vehicle: saline

C=CCNC(=O)c1ccccc1SC(C)=O was tested, and the T/C (dose: 150.0 mg/kg/injection, schedule: Q04DX003 (ip), vehicle: saline with Tween-80) was 93 % of control and the T/C (dose: 300.0 mg/kg/injection, schedule: Q04DX003 (ip), vehicle: saline with Tween-80) was 99 % of control.

With CCOC(=O)C1=C(Nc2ccc(OC)cc2)C(N)=NC1=N the T/C (dose: 37.5 mg/kg/injection, schedule: Q04DX003 (ip), vehicle: suspension in saline) was 76 % of control, the T/C (dose: 75.0 mg/kg/injection, schedule: Q04DX003 (ip), vehicle: suspension in saline) was 82 % of control and the T/C (dose: 150.0 mg/kg/injection, schedule: Q04DX003 (ip), vehicle: suspension in saline) was 79 % of control and 103 % of control. The T/C (dose: 300.0 mg/kg/injection, schedule: Q04DX003 (ip), vehicle: suspension in saline) was 47 % of control and 50 % of control and the T/C (dose: 600.0 mg/kg/injection, schedule: Q04DX003 (ip), vehicle: suspension in saline) was 32 % of control.

With CCOC(=O)C(N)CSC(=O)NC (stereo not given) the T/C (dose: 112.5 mg/kg/injection, schedule: Q04DX003 (ip), vehicle: Klucel (hydroxypropylcellulose) (HPC)) was 54 % of control, the T/C (dose: 125.0 mg/kg/injection, schedule: Q04DX003 (sc), vehicle: saline) was 72 % of control and the T/C (dose: 225.0 mg/kg/injection, schedule: Q04DX003 (ip), vehicle: Klucel (hydroxypropylcellulose) (HPC)) was 14 % of control. For the same molecule, the T/C (dose: 225.0 mg/kg/injection, schedule: Q04DX003 (sc), vehicle: saline) was 26 % of control, the T/C (dose: 450.0 mg/kg/injection, schedule: Q04DX003 (ip), vehicle: Klucel (hydroxypropylcellulose) (HPC)) was 9 % of control and the T/C (dose: 450.0 mg/kg/injection, schedule: Q04DX003 (sc), vehicle: saline) was 2 % of control. For the same molecule, the T/C (dose: 900.0 mg/kg/injection, schedule: Q04DX003 (sc), vehicle: saline) was -19 % of control.

With CCN(CC)CC(C)(C)C(=O)/C=C/c1ccc(/C=C/C(=O)C(C)(C)CN(CC)CC)cc1 the T/C (dose: 60.0 mg/kg/injection, schedule: Q04DX003 (ip), vehicle: saline) was 67 % of control.

In the case of COc1ccc2[nH]c3ccc4cc[n+](CCN5CCC(C6CCN(CC[n+]7ccc8ccc9[nH]c%10ccc(OC)cc%10c9c8c7)CC6)CC5)cc4c3c2c1, the T/C (dose: 4.0 mg/kg/injection, schedule: Q04DX003 (ip), vehicle: water) is reported as 100 % of control, the T/C (dose: 8.0 mg/kg/injection, schedule: Q04DX003 (ip), vehicle: other) is reported as 69 % of control and the T/C (dose: 8.0 mg/kg/injection, schedule: Q04DX003 (ip), vehicle: water) is reported as 38 % of control. The T/C (dose: 16.0 mg/kg/injection, schedule: Q04DX003 (ip), vehicle: other) was 92 % of control, the T/C (dose: 16.0 mg/kg/injection, schedule: Q04DX003 (ip), vehicle: water) was 35 % of control and the T/C (dose: 23.04 mg/kg/injection, schedule: Q04DX003 (ip), vehicle: other) was 101 % of control. The T/C (dose: 32.0 mg/kg/injection, schedule: Q04DX003 (ip), vehicle: other) was 86 % of control, the T/C (dose: 32.0 mg/kg/injection, schedule: Q04DX003 (ip), vehicle: water) was 35 % of control and the T/C (dose: 38.4 mg/kg/injection, schedule: Q04DX003 (ip), vehicle: other) was 53 % of control. For the same molecule, the T/C (dose: 64.0 mg/kg/injection, schedule: Q04DX003 (ip), vehicle: other) was 32 % of control and 42 % of control and the T/C (dose: 64.0 mg/kg/injection, schedule: Q04DX003 (ip), vehicle: water) was 8 % of control.

In the case of COC(COC(=O)N1CCN(C=O)CC1)C1=C(N2CC2)C(=O)C(C)=C(N2CC2)C1=O (stereo not given), the T/C (dose: 3.0 mg/kg/injection, schedule: Q04DX003 (ip), vehicle: saline) is reported as 5 % of control and -16 % of control.

For C=CC(C)(C)n1cc(C2=C(O)C(=O)C(c3cn(C(C)(C)C=C)c4ccccc34)=C(O)C2=O)c2ccccc21, the T/C (dose: 50.0 mg/kg/injection, schedule: Q04DX003 (sc), vehicle: Klucel (hydroxypropylcellulose) (HPC)) was 80 % of control, the T/C (dose: 100.0 mg/kg/injection, schedule: Q04DX003 (sc), vehicle: Klucel (hydroxypropylcellulose) (HPC)) was 96 % of control and the T/C (dose: 200.0 mg/kg/injection, schedule: Q04DX003 (sc), vehicle: Klucel (hydroxypropylcellulose) (HPC)) was 76 % of control. The T/C (dose: 400.0 mg/kg/injection, schedule: Q04DX003 (sc), vehicle: Klucel (hydroxypropylcellulose) (HPC)) was 74 % of control.

For O=S(=O)(O)O.[NH-]C1CCCCC1[NH-].[Pt+2] (stereo not given), the T/C (dose: 0.63 mg/kg/injection, schedule: Q01DX010 (sc), vehicle: dextrose) was 81 % of control, the T/C (dose: 1.25 mg/kg/injection, schedule: Q01DX010 (sc), vehicle: dextrose) was 41 % of control and the T/C (dose: 2.5 mg/kg/injection, schedule: Q01DX010 (sc), vehicle: dextrose) was 6 % of control.

CC(C)C(N)C(=O)Nc1nncs1 (stereo not given) was tested, and the T/C [1] was 73 % of control, the T/C [2] was 77 % of control and the T/C [3] was 86 % of control. The T/C [4] was 46 % of control.

In the case of [Cl][Sn]([c]1ccccc1)[c]1ccccc1, the T/C [2] is reported as 104 % of control, the T/C [3] is reported as 86 % of control and the T/C [4] is reported as 55 % of control. For the same molecule, the T/C (dose: 2400.0 mg/kg/injection, schedule: Q04DX003 (sc), vehicle: saline) was 66 % of control.

In the case of CN(N=O)C(=O)N[C@@H](C=O)[C@@H](O)[C@H](O)[C@H](O)CO, the T/C (dose: 37.0 mg/kg/injection, schedule: Q04DX003 (ip), vehicle: other) is reported as 193 % of control, the T/C (dose: 75.0 mg/kg/injection, schedule: Q04DX003 (ip), vehicle: other) is reported as 117 % of control and the T/C (dose: 150.0 mg/kg/injection, schedule: Q04DX003 (ip), vehicle: other) is reported as 70 % of control. The T/C [1] was 63 % of control.

For CNC(=O)ON(C(C)=O)C(=O)NC, the T/C (dose: 12.5 mg/kg/injection, schedule: Q01DX010 (ip), vehicle: saline) was 218 % of control, the T/C (dose: 25.0 mg/kg/injection, schedule: Q01DX010 (ip), vehicle: saline) was 106 % of control and the T/C (dose: 25.0 mg/kg/injection, schedule: Q01DX010 (sc), vehicle: saline) was 104 % of control. For the same molecule, the T/C (dose: 50.0 mg/kg/injection, schedule: Q01DX010 (ip), vehicle: saline) was 72 % of control, the T/C (dose: 50.0 mg/kg/injection, schedule: Q01DX010 (sc), vehicle: saline) was 26 % of control and the T/C (dose: 100.0 mg/kg/injection, schedule: Q01DX010 (ip), vehicle: saline) was 5 % of control. For the same molecule, the T/C (dose: 100.0 mg/kg/injection, schedule: Q01DX010 (sc), vehicle: saline) was -42 % of control and the T/C (dose: 200.0 mg/kg/injection, schedule: Q01DX010 (sc), vehicle: saline) was -89 % of control.

For CC1=CC(=Nc2ccc(N(CCCl)CCCl)cc2)C=C(C)C1=O, the T/C (dose: 300.0 mg/kg/injection, schedule: Q04DX003 (sc), vehicle: Klucel (hydroxypropylcellulose) (HPC)) was -11 % of control, the T/C (dose: 600.0 mg/kg/injection, schedule: Q04DX003 (sc), vehicle: Klucel (hydroxypropylcellulose) (HPC)) was -12 % of control and the T/C (dose: 1200.0 mg/kg/injection, schedule: Q04DX003 (sc), vehicle: Klucel (hydroxypropylcellulose) (HPC)) was 1 % of control. For the same molecule, the T/C (dose: 2400.0 mg/kg/injection, schedule: Q04DX003 (sc), vehicle: Klucel (hydroxypropylcellulose) (HPC)) was -20 % of control.

For CN(C)c1nc(N(C)C)[n+]([O-])c(N(C)C)n1, the T/C (dose: 200.0 mg/kg/injection, schedule: Q01DX010 (ip), vehicle: water) was 83 % of control and the T/C (dose: 400.0 mg/kg/injection, schedule: Q01DX010 (ip), vehicle: water) was 107 % of control.

O=C(Nc1cccc(O)c1)C(Cl)=C(Cl)Cl was tested, and the T/C (dose: 6.25 mg/kg/injection, schedule: Q04DX003 (ip), vehicle: other) was 66 % of control, the T/C (dose: 12.5 mg/kg/injection, schedule: Q04DX003 (ip), vehicle: DMSO) was 112 % of control and the T/C (dose: 12.5 mg/kg/injection, schedule: Q04DX003 (ip), vehicle: other) was 68 % of control. For the same molecule, the T/C (dose: 25.0 mg/kg/injection, schedule: Q04DX003 (ip), vehicle: DMSO) was 116 % of control, the T/C (dose: 25.0 mg/kg/injection, schedule: Q04DX003 (ip), vehicle: other) was 45 % of control and the T/C (dose: 50.0 mg/kg/injection, schedule: Q04DX003 (ip), vehicle: DMSO) was 47 % of control.

In the case of C[n+]1c(/C=N/NC(N)=S)ccc2ccccc21, the T/C (dose: 300.0 mg/kg/injection, schedule: Q04DX003 (sc), vehicle: saline with Tween-80) is reported as 78 % of control.

With C1CCC2C[N-]CCC2C1.C1CCC2C[N-]CCC2C1.C1CCC2C[N-]CCC2C1.C1CCC2C[N-]CCC2C1.[Cl][Rh][Cl] (stereo not given) the T/C (dose: 72.0 mg/kg/injection, schedule: Q04DX003 (sc), vehicle: saline with Tween-80) was 112 % of control, the T/C (dose: 144.0 mg/kg/injection, schedule: Q04DX003 (sc), vehicle: saline with Tween-80) was 124 % of control and the T/C (dose: 576.0 mg/kg/injection, schedule: Q04DX003 (sc), vehicle: saline with Tween-80) was 67 % of control.
